Source: ChEMBL document CHEMBL4184160, “Recent Progress of Small-Molecule Epidermal Growth Factor Receptor (EGFR) Inhibitors against C797S Resistance in Non-Small-Cell Lung Cancer” (J Med Chem, 2018)

Columns and labels:
[1] = target: Epidermal growth factor receptor (Homo sapiens, UniProt P00533); experiment: Inhibition of wild type recombinant N-terminal GST-tagged human EGFR catalytic domain expressed in Sf9 insect cells using poly-Glu-Tyr (4:1) as substrate after 2 hrs in presence of [gamma-33P]-ATP by filter-binding method
Epidermal growth factor receptor (Homo sapiens, UniProt P00533), sequence (P00533 whole entry, the tested form may be a part): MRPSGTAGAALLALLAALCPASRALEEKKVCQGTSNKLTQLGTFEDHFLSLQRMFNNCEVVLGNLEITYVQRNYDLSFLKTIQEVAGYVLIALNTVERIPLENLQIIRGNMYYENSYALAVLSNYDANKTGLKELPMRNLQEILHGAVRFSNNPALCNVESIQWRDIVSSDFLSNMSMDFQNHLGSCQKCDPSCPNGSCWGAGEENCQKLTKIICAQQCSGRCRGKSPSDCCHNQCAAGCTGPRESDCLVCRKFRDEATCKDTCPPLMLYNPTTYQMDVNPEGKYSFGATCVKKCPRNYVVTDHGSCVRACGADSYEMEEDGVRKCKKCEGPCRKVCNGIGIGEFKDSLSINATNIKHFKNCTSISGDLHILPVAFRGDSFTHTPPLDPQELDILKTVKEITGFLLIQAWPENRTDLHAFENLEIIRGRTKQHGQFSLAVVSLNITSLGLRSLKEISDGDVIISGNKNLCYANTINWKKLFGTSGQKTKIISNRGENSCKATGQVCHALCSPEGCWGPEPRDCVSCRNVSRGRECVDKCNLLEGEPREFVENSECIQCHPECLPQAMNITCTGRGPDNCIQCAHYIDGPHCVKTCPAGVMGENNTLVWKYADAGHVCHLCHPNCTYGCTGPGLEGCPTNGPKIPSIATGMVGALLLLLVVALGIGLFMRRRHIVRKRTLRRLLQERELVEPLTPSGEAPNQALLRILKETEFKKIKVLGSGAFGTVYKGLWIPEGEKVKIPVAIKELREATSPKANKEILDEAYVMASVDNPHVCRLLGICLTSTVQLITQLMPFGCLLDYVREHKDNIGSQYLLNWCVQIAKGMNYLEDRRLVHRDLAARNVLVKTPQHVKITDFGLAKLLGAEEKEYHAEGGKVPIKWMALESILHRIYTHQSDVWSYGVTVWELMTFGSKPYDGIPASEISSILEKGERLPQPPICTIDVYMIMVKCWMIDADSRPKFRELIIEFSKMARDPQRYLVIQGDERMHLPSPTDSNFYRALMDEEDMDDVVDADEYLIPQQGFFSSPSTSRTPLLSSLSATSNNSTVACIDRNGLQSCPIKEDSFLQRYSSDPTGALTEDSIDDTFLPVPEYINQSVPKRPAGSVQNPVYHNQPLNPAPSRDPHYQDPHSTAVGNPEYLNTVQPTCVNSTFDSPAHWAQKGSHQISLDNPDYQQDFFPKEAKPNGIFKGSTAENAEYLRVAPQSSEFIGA

[2] = target: Epidermal growth factor receptor (Homo sapiens, UniProt P00533, 746-750DEL/C797S/T790M); experiment: Inhibition of recombinant human EGFR d746-750/T790M/C797S mutant using poly-Glu-Tyr (4:1) as substrate after 2 hrs in presence of [gamma-33P]-ATP by filter-binding method
Epidermal growth factor receptor (Homo sapiens, UniProt P00533, 746-750DEL/C797S/T790M), sequence (P00533 whole entry, looked up, stated change not applied, the tested form may be a part): as the sequence (P00533 whole entry, the tested form may be a part) above

Homo sapiens [3] = species: Homo sapiens; experiment: Selectivity ratio of IC50 for wild type recombinant N-terminal GST-tagged human EGFR catalytic domain to IC50 for recombinant human EGFR d746-750/T790M/C797S mutant
[4] = test system: Epidermal growth factor receptor (Homo sapiens), P00533 [UNDEFINED MUTATION]
Epidermal growth factor receptor (Homo sapiens), P00533 [UNDEFINED MUTATION], sequence (P00533 whole entry, looked up, stated change not applied): as the sequence (P00533 whole entry, the tested form may be a part) above
Description: Inhibition of human EGFR del19/T790M/C797S mutant expressed in mouse Ba/F3 cells assessed as cell growth inhibition after 72 hrs by CellTiter-Glo assay

Homo sapiens [5] = species: Homo sapiens; experiment: Selectivity ratio of IC50 for human EGFR T790M mutant to IC50 for human wild type EGFR
[6] = target: Epidermal growth factor receptor (Homo sapiens, UniProt P00533, C797S/T790M); experiment: Inhibition of N-terminal GST-fused human EGFR cytoplasmic domain T790M/C797S mutant expressed in baculovirus expression system using TK-substrate after 20 mins by HTRF KinEASE-TK assay
[7] = target: Epidermal growth factor receptor (Homo sapiens, UniProt P00533, C797S/L858R/T790M); experiment: Inhibition of recombinant human EGFR L858R/T790M/C797S mutant using TK-substrate after 10 mins by HTRF KinEASE-TK assay
Epidermal growth factor receptor (Homo sapiens, UniProt P00533, C797S/L858R/T790M), sequence (P00533 25-1210 T790M/C797S/L858R limits assumed): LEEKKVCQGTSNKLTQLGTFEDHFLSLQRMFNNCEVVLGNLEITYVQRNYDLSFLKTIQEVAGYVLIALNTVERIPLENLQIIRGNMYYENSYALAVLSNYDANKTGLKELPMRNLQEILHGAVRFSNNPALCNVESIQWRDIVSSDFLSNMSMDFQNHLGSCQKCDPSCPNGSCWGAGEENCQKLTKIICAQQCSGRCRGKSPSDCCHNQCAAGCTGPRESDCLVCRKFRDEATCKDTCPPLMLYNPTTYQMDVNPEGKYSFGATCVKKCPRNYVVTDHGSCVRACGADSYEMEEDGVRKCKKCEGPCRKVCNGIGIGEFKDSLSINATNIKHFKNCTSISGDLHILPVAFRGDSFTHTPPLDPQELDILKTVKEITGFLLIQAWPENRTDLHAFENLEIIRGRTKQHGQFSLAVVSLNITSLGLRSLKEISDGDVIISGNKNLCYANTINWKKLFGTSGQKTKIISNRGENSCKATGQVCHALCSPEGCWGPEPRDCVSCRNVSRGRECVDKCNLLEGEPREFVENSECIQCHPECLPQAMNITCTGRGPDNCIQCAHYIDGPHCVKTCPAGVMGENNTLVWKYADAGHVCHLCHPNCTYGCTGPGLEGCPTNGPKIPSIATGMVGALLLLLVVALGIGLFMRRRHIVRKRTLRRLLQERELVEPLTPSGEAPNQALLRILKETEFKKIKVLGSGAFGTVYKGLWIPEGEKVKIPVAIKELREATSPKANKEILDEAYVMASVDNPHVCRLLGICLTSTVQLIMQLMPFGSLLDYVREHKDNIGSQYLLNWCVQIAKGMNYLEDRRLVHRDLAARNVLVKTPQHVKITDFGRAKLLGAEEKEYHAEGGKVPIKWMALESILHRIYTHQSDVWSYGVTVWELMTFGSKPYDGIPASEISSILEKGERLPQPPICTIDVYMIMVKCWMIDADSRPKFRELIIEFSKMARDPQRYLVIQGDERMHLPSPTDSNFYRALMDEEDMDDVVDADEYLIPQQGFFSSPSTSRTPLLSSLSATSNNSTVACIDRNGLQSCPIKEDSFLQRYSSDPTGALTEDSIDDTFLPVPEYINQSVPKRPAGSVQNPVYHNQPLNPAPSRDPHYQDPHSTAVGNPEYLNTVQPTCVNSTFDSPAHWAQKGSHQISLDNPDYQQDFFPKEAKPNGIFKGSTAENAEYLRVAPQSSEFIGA

NCI-H1975 = experiment: Growth inhibition of human NCI-H1975 cells after 96 hrs by CellTiter-Glo assay; type: functional; conditions: NCI-H1975, 96 h

| Compound | IC50 [1] | IC50 [2] | Ratio IC50 (Homo sapiens [3]) | GI50 [4] | further results |
| --- | --- | --- | --- | --- | --- |
| C=CC(=O)Nc1cccc(Oc2nc(Nc3ccc(N4CCN(C)CC4)cc3OC)ncc2Cl)c1 |  |  |  |  | Ratio IC50 (Homo sapiens [5]): 30 to 100 |
| C=CC(=O)N1CCC[C@@H](n2nc(-c3cccc4ccccc34)c3c(N)ncnc32)C1 |  |  |  |  | IC50 [6]: 1.9 nM; IC50 [7]: 7900 nM; GI50 (NCI-H1975): 490 nM |
| C=CC(=O)N1CCC[C@@H](n2nc(-c3ccc4ccccc4c3)c3c(N)ncnc32)C1 |  |  |  |  | IC50 [6]: < 1 nM; IC50 [7]: 88 nM; GI50 (NCI-H1975): 140 nM |
| Cc1cc(Nc2ncc(Cl)c(Nc3ccccc3S(=O)(=O)C(C)C)n2)c(OC(C)C)cc1C1CCNCC1 |  |  |  | 780 nM |  |
| COc1cc(N2CCC(N3CCN(C)CC3)CC2)ccc1Nc1ncnc(Nc2ccccc2S(=O)(=O)C(C)C)n1 |  |  |  | 1510 nM |  |
| C=CC(=O)N1CCC[C@@H](n2nc(-c3cn(C)c4ccccc34)c3c(N)ncnc32)C1 |  |  |  |  | IC50 [6]: 2.5 nM; IC50 [7]: 838 nM; GI50 (NCI-H1975): 210 nM |

Now from value to compound, other results behind:

| IC50 [1] | IC50 [2] | Ratio IC50 (Homo sapiens [3]) | GI50 [4] | Compound | further results |
| --- | --- | --- | --- | --- | --- |
| > 50000 nM | 17 nM | > 1000 |  | N#Cc1ccc(O)c(-c2nc(NCc3cnccn3)c3ccccc3n2)c1 |  |
|  |  |  | 132 nM | COc1cc(N2CCC(N)CC2)ccc1Nc1ncc(Cl)c(-c2c[nH]c3ccccc23)n1 |  |
| > 50000 nM | 23 nM | > 1000 |  | N#Cc1ccc(O)c(-c2nc(NCc3cccnc3)c3ccccc3n2)c1 |  |
| > 50000 nM | 46 nM | > 1000 |  | COC(=O)c1ccc(O)c(-c2nc(NCc3cccnc3)c3ccccc3n2)c1 |  |
| 24300 nM | 149 nM | 163 |  | Oc1ccccc1-c1nc(NCc2cccnc2)c2ccccc2n1 |  |
|  |  |  | 59.1 nM | COc1cc(N2CCC(N(C)C)CC2)ccc1Nc1ncc(Cl)c(Nc2ccccc2P(C)(C)=O)n1 |  |
